Source: patent publication US20230265116A1, “DEGRADATION OF (EGFR) BY CONJUGATION OF EGFR INHIBITORS WITH E3 LIGASE LIGAND AND METHODS OF USE” (BEIGENE, LTD., priority 2020, published 2023)
Like-named read-outs stand apart in the source and are kept apart here.

Columns and labels:
[1] = biological target: T1, EGFR L858R/T790M/C797S (BaF3-LTC cells) (Homo sapiens, UniProt P00533, C797S/L858R/T790M); test: EGFR degradation HTRF assay, BaF3-LTC cells; assay type: cell-based
T1 construct: expressed in transfected cells; host or cells: BaF3
T1 sequence (P00533 25-1210 T790M/C797S/L858R): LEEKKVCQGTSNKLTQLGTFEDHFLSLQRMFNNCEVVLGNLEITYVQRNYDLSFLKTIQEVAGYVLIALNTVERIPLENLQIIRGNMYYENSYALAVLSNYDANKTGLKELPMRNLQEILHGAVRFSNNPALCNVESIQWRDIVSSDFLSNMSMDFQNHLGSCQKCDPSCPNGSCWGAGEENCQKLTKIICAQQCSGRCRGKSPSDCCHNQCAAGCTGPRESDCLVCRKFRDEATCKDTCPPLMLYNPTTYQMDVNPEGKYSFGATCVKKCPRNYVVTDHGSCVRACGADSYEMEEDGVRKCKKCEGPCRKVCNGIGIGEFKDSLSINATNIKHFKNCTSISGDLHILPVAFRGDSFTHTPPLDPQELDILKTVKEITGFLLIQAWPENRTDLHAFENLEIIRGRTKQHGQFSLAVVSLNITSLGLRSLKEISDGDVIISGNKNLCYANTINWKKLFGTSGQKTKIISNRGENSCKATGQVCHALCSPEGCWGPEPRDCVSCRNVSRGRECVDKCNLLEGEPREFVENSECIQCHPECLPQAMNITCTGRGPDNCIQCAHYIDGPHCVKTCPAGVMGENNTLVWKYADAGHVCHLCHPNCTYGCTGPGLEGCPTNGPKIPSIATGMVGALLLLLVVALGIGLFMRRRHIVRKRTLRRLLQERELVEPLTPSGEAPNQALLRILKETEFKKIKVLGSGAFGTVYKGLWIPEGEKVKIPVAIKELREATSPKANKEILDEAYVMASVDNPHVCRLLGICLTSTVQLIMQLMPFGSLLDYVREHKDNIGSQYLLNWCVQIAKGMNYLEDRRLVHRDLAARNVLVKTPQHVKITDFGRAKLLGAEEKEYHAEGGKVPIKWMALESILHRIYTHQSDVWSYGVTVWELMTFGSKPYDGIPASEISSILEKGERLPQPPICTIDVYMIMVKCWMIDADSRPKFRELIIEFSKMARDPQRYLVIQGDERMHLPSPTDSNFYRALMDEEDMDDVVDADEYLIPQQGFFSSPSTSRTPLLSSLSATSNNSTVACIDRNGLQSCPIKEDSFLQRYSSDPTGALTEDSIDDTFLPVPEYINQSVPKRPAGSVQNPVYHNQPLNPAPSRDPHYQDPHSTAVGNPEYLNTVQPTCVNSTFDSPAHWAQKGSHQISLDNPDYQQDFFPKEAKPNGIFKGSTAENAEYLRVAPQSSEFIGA
Outline: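 Cells treated 16 h at 37 °C, 5% CO2 in medium with 0.2% DMSO; top final concentration 10 uM, 5-fold dilution, 8 doses. Lysates read by HTRF (665/620 nm); degradation % versus DMSO high control, DC50 from four-parameter fit, Dmax as maximal degradation.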

[2] = tested on: EGFR Del19/T790M/C797S (H1975-clone #28); test: EGFR degradation HTRF assay, H1975-clone #28 DTC cells; assay type: cell-based
Outline: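 Cells were dosed on day 2 with an 8-point, 5-fold dilution series starting at 10 uM final and incubated 16h at 37° C. After lysis for 1 hour, HTRF antibodies were added overnight at room temperature and the plate was read at 665/620 nm. Degradation was normalised to DMSO wells and fitted for DC50 and Dmax.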

[3] = H1975 # 28 DTC cells; maximum percentage of inhibition (degradation)
[4] = BaF3-LTC cells; EGFR degradation, IC50 (DC50) from curve fit; read-out: DC50(nM) BaF3-LTC
[5] = BaF3-LTC cells; maximum percentage of inhibition (degradation); read-out: Dmax (%) BaF3-LTC
[6] = H1975 # 28 DTC cells; EGFR degradation, IC50 (DC50) from curve fit; read-out: DC50(nM) H1975 # 28 DTC

DC50 [1, 4] | Dmax [1, 5] | DC50 [2, 6] | Structure (SMILES) | Dmax (%) BaF3-LTC ([1]; BaF3-LTC cells; maximum percentage of inhibition (degradation)) | DC50 ([1]; read-out: DC50(nM) BaF3-LTC; BaF3-LTC cells; EGFR degradation, IC50 (DC50) from curve fit) | Dmax (%) H1975 # 28 DTC [2, 3] | DC50 ([2]; read-out: DC50(nM) H1975 # 28 DTC; H1975 # 28 DTC cells; EGFR degradation, IC50 (DC50) from curve fit)
22.6 nM | 93.3% | 1.75 nM | CCOc1cc(N2CCC(N3CCN(CCc4cc(F)c([C@H]5CCC(=O)NC5=O)c(F)c4)CC3)CC2)c(CC)cc1Nc1ncc(Br)c(Nc2ccc3c(=O)n(CC)ncc3c2P(C)(C)=O)n1 [Example 679, (R)-3-(4-(2-(4-(1-(4-((5-bromo-4-((5-(dimethylphosphoryl)-2-ethyl-1-oxo-1,2-dihydrophthalazin-6-yl)amino)pyrimidin-2-yl)amino)-5-ethoxy-2-ethylphenyl)piperidin-4-yl)piperazin-1-yl)ethyl)-2,6-difluorophenyl)piperidine-2,6-dione] |  |  | 83.46% | 
38 nM | 94.3% | 3.83 nM | CCOc1ccc2c(P(C)(C)=O)c(Nc3nc(Nc4cc(CC)c(N5CCC(N6CCN(C(=O)[C@@H]7CCN(c8cc(F)c([C@H]9CCC(=O)NC9=O)c(F)c8)C7)CC6)CC5)cc4OC)ncc3Br)ccc2n1 [Example 677, (R)-3-(4-((R)-3-(4-(1-(4-((5-bromo-4-((5-(dimethylphosphoryl)-2-ethoxyquinolin-6-yl)amino)pyrimidin-2-yl)amino)-2-ethyl-5-methoxyphenyl)piperidin-4-yl)piperazine-1-carbonyl)pyrrolidin-1-yl)-2,6-difluorophenyl)piperidine-2,6-dione] |  |  | 77.05% | 
18.4 nM | 87.5% | 1.94 nM | CCOc1cc(N2CCC(N3CCN(CCc4cc(F)c([C@H]5CCC(=O)NC5=O)c(F)c4)CC3)CC2)c(CC)cc1Nc1ncc(Br)c(Nc2ccc3nc(CC)c(F)cc3c2P(C)(C)=O)n1 [Example 588, (R)-3-(4-(2-(4-(1-(4-((5-bromo-4-((5-(dimethylphosphoryl)-2-ethyl-3-fluoroquinolin-6-yl)amino)pyrimidin-2-yl)amino)-5-ethoxy-2-ethylphenyl)piperidin-4-yl)piperazin-1-yl)ethyl)-2,6-difluorophenyl)piperidine-2,6-dione] |  |  | 84.46% | 
9.14 nM |  | 0.803 nM | CCOc1cc(N2CCC(N3CCN(CCc4cc(F)c([C@H]5CCC(=O)NC5=O)c(F)c4)CC3)CC2)c(CC)cc1Nc1ncc(Br)c(Nc2ccc3nc(C)c(F)cc3c2P(C)(C)=O)n1 [Example 728, (R)-3-(4-(2-(4-(1-(4-((5-bromo-4-((5-(dimethylphosphoryl)-3-fluoro-2-methylquinolin-6-yl)amino)pyrimidin-2-yl)amino)-5-ethoxy-2-ethylphenyl)piperidin-4-yl)piperazin-1-yl)ethyl)-2,6-difluorophenyl)piperidine-2,6-dione] |  |  | 87.57% | 
7.19 nM | 87.7% | 0.7 nM | CCc1cc(Nc2ncc(Br)c(Nc3ccc4nc(NC5CC5)ccc4c3P(C)(C)=O)n2)c(OC)cc1N1CCC(N2CCN(CCc3cc(F)c([C@H]4CCC(=O)NC4=O)c(F)c3)CC2)CC1 [Example 653, (R)-3-(4-(2-(4-(1-(4-((5-bromo-4-((2-(cyclopropylamino)-5-(dimethylphosphoryl)quinolin-6-yl)amino)pyrimidin-2-yl)amino)-2-ethyl-5-methoxyphenyl)piperidin-4-yl)piperazin-1-yl)ethyl)-2,6-difluorophenyl)piperidine-2,6-dione] |  |  | 87.89% | 

The next lines start with the molecule.

Structure (SMILES) | DC50 [1, 4] | Dmax [1, 5] | DC50 [2, 6] | Dmax (%) BaF3-LTC ([1]; BaF3-LTC cells; maximum percentage of inhibition (degradation)) | DC50 ([1]; read-out: DC50(nM) BaF3-LTC; BaF3-LTC cells; EGFR degradation, IC50 (DC50) from curve fit) | Dmax (%) H1975 # 28 DTC [2, 3] | DC50 ([2]; read-out: DC50(nM) H1975 # 28 DTC; H1975 # 28 DTC cells; EGFR degradation, IC50 (DC50) from curve fit)
CCOc1cc(N2CCC(N3CCN(CCCc4cc(F)cc5c4oc(=O)n5C4CCC(=O)NC4=O)CC3)CC2)c(CC)cc1Nc1ncc(Br)c(Nc2ccc3nc(CC)ncc3c2P(C)(C)=O)n1 (centres unmarked) [Example 617, 3-(7-(3-(4-(1-(4-((5-bromo-4-((5-(dimethylphosphoryl)-2-ethylquinazolin-6-yl)amino)pyrimidin-2-yl)amino)-5-ethoxy-2-ethylphenyl)piperidin-4-yl)piperazin-1-yl)propyl)-5-fluoro-2-oxobenzo[d]oxazol-3(2H)-yl)piperidine-2,6-dione] |  |  |  | 91.31% | 5.77 nM | 74.31% | 1.15 nM
CCOc1cc(N2CCC(N3CCN(CCCCc4cc(F)cc5c4oc(=O)n5C4CCC(=O)NC4=O)CC3)CC2)c(CC)cc1Nc1ncc(Br)c(Nc2ccc3nc(CC)ccc3c2P(C)(C)=O)n1 (centres unmarked) [Example 632, 3-(7-(4-(4-(1-(4-((5-bromo-4-((5-(dimethylphosphoryl)-2-ethylquinolin-6-yl)amino)pyrimidin-2-yl)amino)-5-ethoxy-2-ethylphenyl)piperidin-4-yl)piperazin-1-yl)butyl)-5-fluoro-2-oxobenzo[d]oxazol-3(2H)-yl)piperidine-2,6-dione] | 14.2 nM | 95.1% | 2.2 nM |  |  | 81.77% | 
CCc1ccc2c(P(C)(C)=O)c(Nc3nc(Nc4cc(CC)c(N5CCC(N6CCN(C(=O)[C@@H]7CCN(c8cc(F)c([C@H]9CCC(=O)NC9=O)c(F)c8)C7)CC6)CC5)cc4OC(F)(F)F)ncc3Br)ccc2n1 [Example 649, (R)-3-(4-((R)-3-(4-(1-(4-((5-bromo-4-((5-(dimethylphosphoryl)-2-ethylquinolin-6-yl)amino)pyrimidin-2-yl)amino)-2-ethyl-5-(trifluoromethoxy)phenyl)piperidin-4-yl)piperazine-1-carbonyl)pyrrolidin-1-yl)-2,6-difluorophenyl)piperidine-2,6-dione] | 31.8 nM | 78.6% | 6.94 nM |  |  | 75.95% | 
CCOc1cc(N2CCC(N3CCN(C(=O)[C@H]4CN(c5cc(F)c([C@H]6CCC(=O)NC6=O)c(F)c5)CC4(C)C)CC3)CC2)c(CC)cc1Nc1ncc(Br)c(Nc2ccc3nc(C)ccc3c2P(C)(C)=O)n1 [Example 747, (R)-3-(4-((R)-4-(4-(1-(4-((5-bromo-4-((5-(dimethylphosphoryl)-2-methylquinolin-6-yl)amino)pyrimidin-2-yl)amino)-5-ethoxy-2-ethylphenyl)piperidin-4-yl)piperazine-1-carbonyl)-3,3-dimethylpyrrolidin-1-yl)-2,6-difluorophenyl)piperidine-2,6-dione] | 19.8 nM |  | 2.91 nM |  |  | 76.51% | 
CCOc1cc(N2CCC(N3CCN(CCc4c(C(F)(F)F)ccc5c4oc(=O)n5C4CCC(=O)NC4=O)CC3)CC2)c(CC)cc1Nc1ncc(Br)c(Nc2ccc3nc(CC)ccc3c2P(C)(C)=O)n1 (centres unmarked) [Example 724, 3-(7-(2-(4-(1-(4-((5-bromo-4-((5-(dimethylphosphoryl)-2-ethylquinolin-6-yl)amino)pyrimidin-2-yl)amino)-5-ethoxy-2-ethylphenyl)piperidin-4-yl)piperazin-1-yl)ethyl)-2-oxo-6-(trifluoromethyl)benzo[d]oxazol-3(2H)-yl)piperidine-2,6-dione] | 55.1 nM | 85.6% | 2.86 nM |  |  | 75.94% | 
CCOc1cc(N2CCC(N3CCN(C(=O)[C@H]4CN(c5cc(F)c([C@H]6CCC(=O)NC6=O)c(F)c5)CC4(C)C)CC3)CC2)c(CC)cc1Nc1ncc(Br)c(Nc2cc(F)c3nc(CC)ccc3c2P(C)(C)=O)n1 [Example 746, (R)-3-(4-((R)-4-(4-(1-(4-((5-bromo-4-((5-(dimethylphosphoryl)-2-ethyl-8-fluoroquinolin-6-yl)amino)pyrimidin-2-yl)amino)-5-ethoxy-2-ethylphenyl)piperidin-4-yl)piperazine-1-carbonyl)-3,3-dimethylpyrrolidin-1-yl)-2,6-difluorophenyl)piperidine-2,6-dione] | 30.9 nM |  | 11 nM |  |  | 77.61% | 
